One assay concerns the target Pim1 kinase (Homo sapiens, UniProt P11309). The assay can be described thus: Pim1 ATP depletion assay.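 Note: Luciferase-luciferin luminescence readout of residual ATP after PIM1 transfers phosphate to a peptide substrate, 40 µM ATP added, reaction run to roughly half ATP consumption.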 It counts as biochemical. To be noted: Pim1 ATP depletion assay.
The target of a further assay is Pim2 kinase (Homo sapiens, UniProt Q9P1W9). The assay can be described thus: Pim2 ATP depletion assay.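 Note: Luciferase-based luminescent readout of ATP remaining after PIM2 phosphorylates a BAD peptide, final 5 nM enzyme, 4 µM ATP, 10 µM peptide, 2.5% DMSO, run to roughly half ATP consumption.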 It counts as biochemical.
The target of another assay is Pim3 kinase (Homo sapiens, UniProt Q86V86). The experiment in a line: Pim3 ATP depletion assay. The assay is classed as biochemical.
Another assay addresses KDR kinase (Homo sapiens, UniProt P35968). The experiment in a line: KDR AlphaScreen assay. Particulars: KDR IC50 (μM).

Molecules are shown by their SMILES. Read-outs that look alike come from different tables or passages of the source.

Chain of Pim2 kinase (Q9P1W9 whole entry): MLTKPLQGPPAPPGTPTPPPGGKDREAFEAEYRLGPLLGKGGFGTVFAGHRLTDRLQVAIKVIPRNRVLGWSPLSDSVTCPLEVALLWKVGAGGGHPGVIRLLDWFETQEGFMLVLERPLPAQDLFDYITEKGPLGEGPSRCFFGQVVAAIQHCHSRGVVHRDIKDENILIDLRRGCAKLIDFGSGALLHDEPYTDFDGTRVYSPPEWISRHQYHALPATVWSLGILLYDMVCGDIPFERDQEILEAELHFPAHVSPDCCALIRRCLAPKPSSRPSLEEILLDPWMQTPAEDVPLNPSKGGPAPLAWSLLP
Chain of Pim1 kinase (P11309 whole entry): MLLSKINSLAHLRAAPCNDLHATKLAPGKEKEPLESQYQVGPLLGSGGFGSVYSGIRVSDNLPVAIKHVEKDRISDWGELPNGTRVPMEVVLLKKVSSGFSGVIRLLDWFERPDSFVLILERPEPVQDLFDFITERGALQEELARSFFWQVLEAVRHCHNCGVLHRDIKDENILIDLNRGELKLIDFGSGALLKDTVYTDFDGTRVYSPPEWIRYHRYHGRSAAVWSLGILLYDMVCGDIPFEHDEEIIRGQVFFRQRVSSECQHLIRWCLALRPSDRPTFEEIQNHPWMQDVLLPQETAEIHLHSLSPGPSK
Chain of KDR kinase (P35968 20-1356): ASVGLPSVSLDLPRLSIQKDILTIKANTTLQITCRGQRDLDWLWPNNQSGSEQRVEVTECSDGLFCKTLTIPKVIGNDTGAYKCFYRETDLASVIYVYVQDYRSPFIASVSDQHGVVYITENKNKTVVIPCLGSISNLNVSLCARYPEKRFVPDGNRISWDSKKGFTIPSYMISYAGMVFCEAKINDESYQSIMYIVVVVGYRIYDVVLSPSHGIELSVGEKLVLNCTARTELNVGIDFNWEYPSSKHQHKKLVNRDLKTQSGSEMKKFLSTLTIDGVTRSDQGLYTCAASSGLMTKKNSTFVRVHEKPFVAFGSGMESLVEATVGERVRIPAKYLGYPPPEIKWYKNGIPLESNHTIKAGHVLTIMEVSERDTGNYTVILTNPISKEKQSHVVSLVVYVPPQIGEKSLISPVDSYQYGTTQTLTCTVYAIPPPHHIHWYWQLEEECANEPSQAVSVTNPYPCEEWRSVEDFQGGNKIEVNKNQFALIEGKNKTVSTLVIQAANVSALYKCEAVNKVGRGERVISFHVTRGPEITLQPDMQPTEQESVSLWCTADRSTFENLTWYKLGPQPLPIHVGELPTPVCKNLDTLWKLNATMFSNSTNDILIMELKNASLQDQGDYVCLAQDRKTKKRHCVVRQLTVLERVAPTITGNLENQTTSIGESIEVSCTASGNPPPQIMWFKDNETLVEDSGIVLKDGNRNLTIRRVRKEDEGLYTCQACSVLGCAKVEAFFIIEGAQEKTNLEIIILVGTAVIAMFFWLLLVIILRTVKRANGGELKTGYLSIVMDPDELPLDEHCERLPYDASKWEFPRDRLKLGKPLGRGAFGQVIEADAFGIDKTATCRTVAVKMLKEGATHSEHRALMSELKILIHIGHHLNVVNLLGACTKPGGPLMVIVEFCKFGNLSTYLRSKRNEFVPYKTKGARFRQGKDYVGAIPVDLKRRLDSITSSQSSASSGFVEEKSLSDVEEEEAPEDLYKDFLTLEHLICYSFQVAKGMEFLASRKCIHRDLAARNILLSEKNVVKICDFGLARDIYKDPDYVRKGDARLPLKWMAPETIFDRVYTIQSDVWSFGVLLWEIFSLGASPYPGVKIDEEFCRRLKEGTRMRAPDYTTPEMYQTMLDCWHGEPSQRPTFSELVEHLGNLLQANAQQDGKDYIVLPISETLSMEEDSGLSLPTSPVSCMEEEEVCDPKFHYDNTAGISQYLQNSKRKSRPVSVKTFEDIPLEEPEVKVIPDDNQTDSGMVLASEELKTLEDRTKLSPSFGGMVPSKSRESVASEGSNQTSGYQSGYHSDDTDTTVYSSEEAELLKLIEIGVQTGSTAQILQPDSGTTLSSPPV

`Nc1cc(-c2ccccc2)cnc1C(=O)Nc1cnccc1N1CCC[C@H](N)C1` [Example 264, 3-Amino-5-phenyl-pyridine-2-carboxylic acid (3-amino-3,4,5,6-tetrahydro-2H-[1,4′]bipyridinyl-3′-yl)-amide]: the IC50 on Pim1 kinase (read-out: IC50 (μM) PIM1), at Pim2 kinase (read-out: IC50 (μM) PIM2), at Pim3 kinase (read-out: IC50 (μM) PIM3) and against KDR kinase was below 1 µM throughout.
For the molecule `Nc1cnc(-c2ccccc2)nc1C(=O)Nc1cnccc1N1CCC[C@H](N)C1` [Example 265, 5-Amino-2-phenyl-pyrimidine-4-carboxylic acid (3-amino-3,4,5,6-tetrahydro-2H-[1,4′]bipyridinyl-3′-yl)-amide], the IC50 was below 1 µM at Pim1 kinase (read-out: IC50 (μM) PIM1), below 1 µM at Pim2 kinase (read-out: IC50 (μM) PIM2), below 1 µM on Pim3 kinase (read-out: IC50 (μM) PIM3) and 10 to 25 µM on KDR kinase.
With `Cc1nc(N)cc(-c2ccncc2NC(=O)c2nc(-c3ccccc3)ncc2N)n1` [Example 268, 5-Amino-2-phenyl-pyrimidine-4-carboxylic acid [4-(6-amino-2-methyl-pyrimidin-4-yl)-pyridin-3-yl]-amide], the IC50 was below 1 µM at Pim1 kinase (read-out: IC50 (μM) PIM1), below 1 µM at Pim2 kinase (read-out: IC50 (μM) PIM2), below 1 µM on Pim3 kinase (read-out: IC50 (μM) PIM3) and 1 to 10 µM on KDR kinase.
As for `CSc1nc(N)cc(-c2ccncc2NC(=O)c2nc(-c3c(F)cccc3F)ccc2N)n1` [Example 275, 3-Amino-6-(2,6-difluoro-phenyl)-pyridine-2-carboxylic acid [4-(6-amino-2-methylsulfanyl-pyrimidin-4-yl)-pyridin-3-yl]-amide], the IC50 on Pim1 kinase (read-out: IC50 (μM) PIM1) was below 1 µM; at Pim2 kinase (read-out: IC50 (μM) PIM2), below 1 µM; at Pim3 kinase (read-out: IC50 (μM) PIM3), below 1 µM; against KDR kinase, 10 to 25 µM.
As for `Nc1ccc(-c2scc3c2OCCO3)nc1C(=O)Nc1cnccc1N1CCC[C@H](N)C1` [Example 447, 3-Amino-6-(2,3-dihydro-thieno[3,4-b][1,4]dioxin-5-yl)-pyridine-2-carboxylic acid (3-amino-3,4,5,6-tetrahydro-2H-[1,4′]bipyridinyl-3′-yl)-amide], the IC50 was below 1 µM at Pim1 kinase (read-out: IC50 (μM) PIM1), below 1 µM at Pim2 kinase (read-out: IC50 (μM) PIM2), below 1 µM at Pim3 kinase (read-out: IC50 (μM) PIM3) and 10 to 25 µM against KDR kinase.
Regarding `N[C@H]1CCCN(c2ccncc2NC(=O)c2cccc(-c3ccccc3F)n2)C1` [Example 455, 6-(2-Fluoro-phenyl)-pyridine-2-carboxylic acid (3-amino-3,4,5,6-tetrahydro-2H-[1,4′]bipyridinyl-3′-yl)-amide], the IC50 was below 1 µM on Pim1 kinase (read-out: IC50 (μM) PIM1), below 1 µM at Pim2 kinase (read-out: IC50 (μM) PIM2), below 1 µM on Pim3 kinase (read-out: IC50 (μM) PIM3) and 10 to 25 µM on KDR kinase.
In the case of `N[C@H]1CCCN(c2ccncc2NC(=O)c2cccc(-c3ccccc3)n2)C1` [Example 487, 6-Phenyl-pyridine-2-carboxylic acid (3-amino-3,4,5,6-tetrahydro-2H-[1,4′]bipyridinyl-3′-yl)-amide], the IC50 on Pim1 kinase (read-out: IC50 (μM) PIM1) was below 1 µM; at Pim2 kinase (read-out: IC50 (μM) PIM2) it was below 1 µM; on Pim3 kinase (read-out: IC50 (μM) PIM3), below 1 µM; on KDR kinase, 10 to 25 µM.
Regarding `Nc1cc(F)c(-c2c(F)ccc(OCc3ccccc3)c2F)nc1C(=O)Nc1cnccc1N1CCC[C@H](N)C1` [Example 505, 3-Amino-6-(3-benzyloxy-2,6-difluoro-phenyl)-5-fluoro-pyridine-2-carboxylic acid (3-amino-3,4,5,6-tetrahydro-2H-[1,4′]bipyridinyl-3′-yl)-amide], the IC50 at Pim1 kinase (read-out: IC50 (μM) PIM1) is below 1 µM; on Pim2 kinase (read-out: IC50 (μM) PIM2) it was below 1 µM; on Pim3 kinase (read-out: IC50 (μM) PIM3), below 1 µM; against KDR kinase, 10 to 25 µM.
For the molecule `Nc1ccc(-c2cnc(N)c(OCC(F)(F)F)n2)nc1C(=O)Nc1cnccc1N1CCC[C@H](N)C1` [Example 519, 3-Amino-6-[5-amino-6-(2,2,2-trifluoro-ethoxy)-pyrazin-2-yl]-pyridine-2-carboxylic acid (3-amino-3,4,5,6-tetrahydro-2H-[1,4′]bipyridinyl-3′-yl)-amide], the IC50 was below 1 µM on Pim1 kinase (read-out: IC50 (μM) PIM1), below 1 µM on Pim2 kinase (read-out: IC50 (μM) PIM2), below 1 µM at Pim3 kinase (read-out: IC50 (μM) PIM3) and 10 to 25 µM on KDR kinase.
As for `Nc1ccc(-c2cncc(OCC3CC3)n2)nc1C(=O)Nc1cnccc1N1CCC[C@H](N)C1` [Example 521, 3-Amino-6-(6-cyclopropylmethoxy-pyrazin-2-yl)-pyridine-2-carboxylic acid (3-amino-3,4,5,6-tetrahydro-2H-[1,4′]bipyridinyl-3′-yl)-amide], the IC50 on Pim1 kinase (read-out: IC50 (μM) PIM1) was below 1 µM; at Pim2 kinase (read-out: IC50 (μM) PIM2) it was below 1 µM; on Pim3 kinase (read-out: IC50 (μM) PIM3), below 1 µM; against KDR kinase it was 1 to 10 µM.
Turning to `Nc1ccc(-c2cncc(O)n2)nc1C(=O)Nc1cnccc1N1CCC[C@H](N)C1` [Example 522, 3-Amino-6-(6-hydroxy-pyrazin-2-yl)-pyridine-2-carboxylic acid (3-amino-3,4,5,6-tetrahydro-2H-[1,4′]bipyridinyl-3′-yl)-amide], the 50% inhibitory concentration (IC50) is below 1 µM on Pim1 kinase (read-out: IC50 (μM) PIM1), below 1 µM at Pim2 kinase (read-out: IC50 (μM) PIM2), below 1 µM on Pim3 kinase (read-out: IC50 (μM) PIM3) and 1 to 10 µM against KDR kinase.
With `CC(C)COc1cncc(-c2ccc(N)c(C(=O)Nc3cnccc3N3CCC[C@H](N)C3)n2)n1` [Example 523, 3-Amino-6-(6-isobutoxy-pyrazin-2-yl)-pyridine-2-carboxylic acid (3-amino-3,4,5,6-tetrahydro-2H-[1,4′]bipyridinyl-3′-yl)-amide], the IC50 at Pim1 kinase (read-out: IC50 (μM) PIM1) was below 1 µM; at Pim2 kinase (read-out: IC50 (μM) PIM2) it was below 1 µM; at Pim3 kinase (read-out: IC50 (μM) PIM3) it was below 1 µM; on KDR kinase it was 10 to 25 µM.
For `Nc1ccc(-c2ccccc2)nc1C(=O)Nc1cnccc1N1CCC[C@H](N)C1` [Example 524, 3-Amino-6-phenyl-pyridine-2-carboxylic acid (3-amino-3,4,5,6-tetrahydro-2H-[1,4′]bipyridinyl-3′-yl)-amide], the IC50 was below 1 µM at Pim1 kinase (read-out: IC50 (μM) PIM1), below 1 µM on Pim2 kinase (read-out: IC50 (μM) PIM2), below 1 µM on Pim3 kinase (read-out: IC50 (μM) PIM3) and 1 to 10 µM against KDR kinase.
As to `CSc1nc(N)cc(-c2ccncc2NC(=O)c2nc(-c3cc(C(=O)NC(C)C)ccc3F)ccc2N)n1` [Example 534, 3-Amino-6-(2-fluoro-5-isopropylcarbamoyl-phenyl)-pyridine-2-carboxylic acid [4-(6-amino-2-methylsulfanyl-pyrimidin-4-yl)-pyridin-3-yl]-amide], the IC50 at Pim1 kinase (read-out: IC50 (μM) PIM1) was below 1 µM; on Pim2 kinase (read-out: IC50 (μM) PIM2), below 1 µM; on Pim3 kinase (read-out: IC50 (μM) PIM3), below 1 µM; at KDR kinase it was 1 to 10 µM.
With `CSc1nc(N)cc(-c2ccncc2NC(=O)c2nc(-c3cc(C(=O)N(C)C)ccc3F)ccc2N)n1` [Example 535, 3-Amino-6-(5-dimethylcarbamoyl-2-fluoro-phenyl)-pyridine-2-carboxylic acid [4-(6-amino-2-methylsulfanyl-pyrimidin-4-yl)-pyridin-3-yl]-amide], the IC50 on Pim1 kinase (read-out: PIM1 IC50) is below 1 µM; on Pim2 kinase (read-out: PIM2 IC50) it was below 1 µM; at Pim3 kinase (read-out: PIM3 IC50), below 1 µM; on KDR kinase, 10 to 25 µM.
`Cc1cc(-c2ccncc2NC(=O)c2nc(-c3c(F)ccc(OC(C)C)c3F)ccc2N)cc(N)n1` [Example 538, 3-Amino-6-(2,6-difluoro-3-isopropoxy-phenyl)-pyridine-2-carboxylic acid (2′-amino-6′-methyl-[4,4′]bipyridinyl-3-yl)-amide]: the IC50 on Pim1 kinase (read-out: PIM1 IC50) was below 1 µM; on Pim2 kinase (read-out: PIM2 IC50), below 1 µM; on Pim3 kinase (read-out: PIM3 IC50) it was below 1 µM; on KDR kinase, 10 to 25 µM.
With `CC(C)NC(=O)c1ccc(F)c(-c2ncc(N)c(C(=O)Nc3cnccc3N3CCC[C@H](N)C3)n2)c1` [Example 542, 5-Amino-2-(2-fluoro-5-isopropylcarbamoyl-phenyl)-pyrimidine-4-carboxylic acid (3-amino-3,4,5,6-tetrahydro-2H-[1,4′]bipyridinyl-3′-yl)-amide], the IC50 at Pim1 kinase (read-out: PIM1 IC50) is below 1 µM; on Pim2 kinase (read-out: PIM2 IC50) it was below 1 µM; on Pim3 kinase (read-out: PIM3 IC50), below 1 µM; against KDR kinase it was 10 to 25 µM.
For the molecule `Cc1ccc(F)c(-c2ncc(N)c(C(=O)Nc3cnccc3N3CCC[C@H](N)C3)n2)c1` [Example 543, 5-Amino-2-(2-fluoro-5-methyl-phenyl)-pyrimidine-4-carboxylic acid (3-amino-3,4,5,6-tetrahydro-2H-[1,4′]bipyridinyl-3′-yl)-amide], the IC50 at Pim1 kinase (read-out: PIM1 IC50) is below 1 µM; on Pim2 kinase (read-out: PIM2 IC50), below 1 µM; at Pim3 kinase (read-out: PIM3 IC50), below 1 µM; at KDR kinase, 10 to 25 µM.
With `CC(=O)Nc1cccc(-c2ncc(N)c(C(=O)Nc3cnccc3N3CCC[C@H](N)C3)n2)c1` [Example 544, 2-(3-Acetylamino-phenyl)-5-amino-pyrimidine-4-carboxylic acid (3-amino-3,4,5,6-tetrahydro-2H-[1,4′]bipyridinyl-3′-yl)-amide], the IC50 at Pim1 kinase (read-out: PIM1 IC50) was below 1 µM; at Pim2 kinase (read-out: PIM2 IC50), below 1 µM; on Pim3 kinase (read-out: PIM3 IC50), below 1 µM; against KDR kinase it was 10 to 25 µM.
For `CCCOc1ccc(F)c(-c2ncc(N)c(C(=O)Nc3cnccc3N3CCC[C@H](N)C3)n2)c1F` [Example 545, 5-Amino-2-(2,6-difluoro-3-propoxy-phenyl)-pyrimidine-4-carboxylic acid (3-amino-3,4,5,6-tetrahydro-2H-[1,4′]bipyridinyl-3′-yl)-amide], the IC50 was below 1 µM on Pim1 kinase (read-out: PIM1 IC50), below 1 µM on Pim2 kinase (read-out: PIM2 IC50), below 1 µM at Pim3 kinase (read-out: PIM3 IC50) and 10 to 25 µM on KDR kinase.
Take `Nc1cnc(-c2ccc(Cl)cc2F)nc1C(=O)Nc1cnccc1N1CCC[C@H](N)C1` [Example 547, 5-Amino-2-(4-chloro-2-fluoro-phenyl)-pyrimidine-4-carboxylic acid (3-amino-3,4,5,6-tetrahydro-2H-[1,4′]bipyridinyl-3′-yl)-amide]: the IC50 is below 1 µM on Pim1 kinase (read-out: PIM1 IC50), below 1 µM on Pim2 kinase (read-out: PIM2 IC50), below 1 µM at Pim3 kinase (read-out: PIM3 IC50) and 10 to 25 µM against KDR kinase.

The values above are taken from patent US20140249135A1, “PIM KINASE INHIBITORS AND METHODS OF THEIR USE” (NOVARTIS AG, priority 2007, published 2014).
